# Assay results: patent publication US20090227507A1, “Angiotensin (1-7) Dosage Forms and Uses Thereof” (UNIVERSITY OF SOUTHERN CALIFORNIA, priority 2008, published 2009)
# Experiments:
# lymphocyte numbers = test: Lymphocyte recovery after subcutaneous TXA127 in subjects without HIV infection (breast cancer subjects receiving chemotherapy); type: in vivo; conditions: human subjects without HIV infection (e.g., breast cancer subjects receiving cancer chemotherapy)
# Text: In the absence of effective antiretroviral therapy, HIV disease is characterized by the relentless destruction of CD4+ T-lymphocytes resulting in disordered and declining immune function.
# [1] = Urinalysis with microscopic examination of sediment in healthy men; type: in vivo, human; conditions: Subject 011, 200 μg/kg
# Protocol: Laboratory measurements were conducted by a local clinical laboratory.
# Blood, urobilinogen, ketones, glucose, protein, microscopic examination of sediment, sodium, and potassium.
# [2] = tested on: CD4 cells in peripheral blood; test: Flow cytometry of peripheral blood, CD4 lymphocytes; USB003 SC once daily for 7 days in healthy men; type: in vivo, human; parameters: key to Subjects with shift, Absolute CD4, N-L (normal to low) / Subjects with shift, Absolute CD4, N-H (normal to high) / Subjects with shift, Absolute CD4, H-N (high to normal) / Subjects with shift, Absolute CD4, L-N (low to normal): — signifies subject with no shift from baseline; conditions: for CD4, Absolute, Mean at Baseline: Baseline (Day 1)
# Protocol: • Single-center, randomized, double-blind, placebo-controlled, 2 cohort dose-escalation trial of once daily dosing over a 7-day period (7 doses total): • Cohort 1: 2 subjects treated with placebo and 8 subjects treated with 200 μg/kg USB003 (A(1-7)) • Cohort 2: 2 subjects treated with placebo and 8 subjects treated with 300 μg/kg USB003 • For each cohort, there was a Screening Period, Treatment Phase, Follow-up Period, and Study Termination or Early Withdrawal Day. Subjects were confined to the study unit during the Treatment Phase. • Cohort 2 was treated approximately 1 week after completion of the Treatment Phase for Cohort 1 to allow time for the assessment of safety and tolerability in the first cohort.
# Pharmacological Effect: The following evaluations (under efficacy and safety in the protocol) were performed: • Effects on the number of mature blood cells: • 1. CBC (with differential), platelet count, reticulocyte count. • Effects on early hematopoietic progenitor cells and mature lymphocyte subsets in the periphery: • 1. Flow cytometry to evaluate frequency of peripheral blood progenitor cells (eg, CD34^+) and lymphocyte subsets (eg, CD3, CD4, CD8) in peripheral blood. • 2. Collection of blood for later possible culture for progenitor cells (eg, colony forming units-granulocyte/macrophage [CFU-GM]) to evaluate potential effects on CD34^+ hematopoietic progenitor cells in peripheral blood. • 3.
# The effect of USB003 on the number of mature blood cells was assessed by the complete blood count with differential, platelet and reticulocyte counts. The effects on early hematopoietic progenitor cells and mature lymphocyte subsets in the periphery were assessed by flow cytometry. In addition, blood was collected and processed to enable culture of progenitors at a later time.
# Red blood cell (RBC) count, RBC indices, white blood cell count (WBC) with differential, reticulocyte count, platelet count, hemoglobin (Hb), hematocrit (Hct), plasma hemoglobin, peripheral flow cytometry, including CD34^+, flow cytometry for enumeration of CD3, CD4, and CD8 lymphocytes, and culture for progenitor cells in peripheral blood including colony-forming units-granulocyte/macrophage (CFU-GM).
substance,measurement,setting,value
Asp-Arg-Val-Tyr-Ile-His-Pro [USB003],lymphocyte numbers following subcutaneous injection,lymphocyte numbers,dramatic recovery of lymphocyte numbers
same,Urine Glucose High/Low Normal/Abnormal,[1]; Day 1,Abnormal
same,Urine Glucose Significance,[1]; Day 1,CS AE
same,Urine Glucose Value,[1]; Day 1,+1
same,Urine Glucose High/Low Normal/Abnormal,[1]; Day 3,N
same,Urine Glucose Value,[1]; Day 3,neg
same,"CD4, Absolute, Mean at Baseline",[2]; 200 μg/kg,1122.6 cells/μL
same,"Subjects with shift, Absolute CD4, H-N (high to normal)","[2]; 200 μg/kg, Baseline to Day 8",1
same,"Subjects with shift, Absolute CD4, L-N (low to normal)","[2]; 200 μg/kg, Baseline to Day 8",—
same,"Subjects with shift, Absolute CD4, N-H (normal to high)","[2]; 200 μg/kg, Baseline to Day 8",—
same,"Subjects with shift, Absolute CD4, N-L (normal to low)","[2]; 200 μg/kg, Baseline to Day 8",—
same,"Subjects with shift, Absolute CD4, H-N (high to normal)","[2]; 200 μg/kg, Baseline to Day 20",1
same,"Subjects with shift, Absolute CD4, L-N (low to normal)","[2]; 200 μg/kg, Baseline to Day 20",—
same,"Subjects with shift, Absolute CD4, N-H (normal to high)","[2]; 200 μg/kg, Baseline to Day 20",—
same,"Subjects with shift, Absolute CD4, N-L (normal to low)","[2]; 200 μg/kg, Baseline to Day 20",—
same,"CD4, Absolute, Mean Change from Baseline","[2]; 200 μg/kg, Day 3",−88.0 cells/μL
same,"CD4, Absolute, Mean Change from Baseline","[2]; 200 μg/kg, Day 5",39.5 cells/μL
same,"CD4, Absolute, Mean Change from Baseline","[2]; 200 μg/kg, Day 7",53.6 cells/μL
same,"CD4, Absolute, Mean Change from Baseline","[2]; 200 μg/kg, Day 8",−24.0 cells/μL
same,"CD4, Absolute, Mean Change from Baseline","[2]; 200 μg/kg, Day 11",82.5 cells/μL
same,"CD4, Absolute, Mean Change from Baseline","[2]; 200 μg/kg, Day 14",12.1 cells/μL
same,"CD4, Absolute, Mean Change from Baseline","[2]; 200 μg/kg, Day 17",−70.5 cells/μL
same,"CD4, Absolute, Mean Change from Baseline","[2]; 200 μg/kg, Day 20",−58.0 cells/μL
same,"CD4, Absolute, Mean at Baseline",[2]; 300 μg/kg,734.4 cells/μL
same,"Subjects with shift, Absolute CD4, H-N (high to normal)","[2]; 300 μg/kg, Baseline to Day 8",—
same,"Subjects with shift, Absolute CD4, L-N (low to normal)","[2]; 300 μg/kg, Baseline to Day 8",1
same,"Subjects with shift, Absolute CD4, N-H (normal to high)","[2]; 300 μg/kg, Baseline to Day 8",—
same,"Subjects with shift, Absolute CD4, N-L (normal to low)","[2]; 300 μg/kg, Baseline to Day 8",—
same,"Subjects with shift, Absolute CD4, H-N (high to normal)","[2]; 300 μg/kg, Baseline to Day 20",—
same,"Subjects with shift, Absolute CD4, L-N (low to normal)","[2]; 300 μg/kg, Baseline to Day 20",—
same,"Subjects with shift, Absolute CD4, N-H (normal to high)","[2]; 300 μg/kg, Baseline to Day 20",—
same,"Subjects with shift, Absolute CD4, N-L (normal to low)","[2]; 300 μg/kg, Baseline to Day 20",1
same,"CD4, Absolute, Mean Change from Baseline","[2]; 300 μg/kg, Day 3",109.6 cells/μL
same,"CD4, Absolute, Mean Change from Baseline","[2]; 300 μg/kg, Day 5",108.1 cells/μL
same,"CD4, Absolute, Mean Change from Baseline","[2]; 300 μg/kg, Day 7",129.3 cells/μL
same,"CD4, Absolute, Mean Change from Baseline","[2]; 300 μg/kg, Day 8",31.1 cells/μL
same,"CD4, Absolute, Mean Change from Baseline","[2]; 300 μg/kg, Day 11",−29.3 cells/μL
same,"CD4, Absolute, Mean Change from Baseline","[2]; 300 μg/kg, Day 14",9.7 cells/μL
same,"CD4, Absolute, Mean Change from Baseline","[2]; 300 μg/kg, Day 17",−40.0 cells/μL
same,"CD4, Absolute, Mean Change from Baseline","[2]; 300 μg/kg, Day 20",48.9 cells/μL
